This test in a line: Inhibition of spike glycoprotein S in SARS-CoV-2 pseudovirus infected in human 293T/ACE2 cells assessed as inhibition of viral infection pretreated the virus for 30 mins followed by viral infection measured after 48 hrs by luciferase reporter gene assay.

Broadly, the IC50 is the concentration that gives 50% inhibition.

In the case of `COc1c(O)c2c(=O)cc(OC)c3c4c(OC)cc(=O)c5c(O)c(OC)c6c(c(c1C[C@](C)(O)[C@H]6C(C)=O)c23)c54`, the IC50 turned out to be 120 nM. As to `COC1=C(CC(C)=O)C(=O)c2c(c(O)cc(OC)c2-c2c(OC)cc(O)c3c2C(=O)C(CC(C)=O)=C(OC)C3=O)C1=O`, the IC50 is 170 nM. `COc1c2c3c4c(c(OC)c(=O)c5c(O)cc(OC)c(c6c(OC)cc(O)c(c1=O)c63)c54)[C@@H](C(C)=O)[C@@](C)(O)C2` [Hypocrellin A]: the IC50 stood at 38 nM.

Source of the values: BindingDB's records for doi:10.1021/acs.jnatprod.0c01136 (Chinese Academy of Sciences, 2021).
